{
  "source": "patent US7371776B2",
  "about": "“Methods and compositions for treating cancer” (Mars, Incorporated, priority 2004, dated 2008)",
  "assay_type_in_all_cases": "cell-based, human",
  "key": {"MCF-7 cells": {"tested_on": "MCF-7 cells", "experiment": "Crystal violet cellular proliferation assay", "settings": "MCF-7 (wild type p53, ER-positive); 100 μg/mL", "experimental": "(§1) Human breast cancer cell lines MDA MB-231, MDA MB-436, MD MB-468, SKBR-3 and MCF-7 were obtained from the Lombardi Comprehensive Cancer Center (LCC) Tissue Culture Shared Resource. MDA MB-231, MDA MB-436, MD MB-468 and SKBR-3 are p53-mutated estrogen receptor (ER)-negative cells. MDA MB-231 also contains a mutation in the K-ras oncogene. The MCF-7 cell line is ER-positive and non-mutated for p53. The cells were grown in complete media containing DMEM (Gibco-BRL, Gaithersburg, Md.) supplemented with 10% fetal bovine serum (FBS) (Quality Biological, Gaithersburg, Md.). In addition, media for MCF-7 contained non essential amino acids (Gibco-BRL, Gaithersburg, Md.).\n(§2) One×10^3 cells per well were seeded in 96 well dishes (Coming Costar, Cambridge, Mass.). Primary cultures of HMECs, A1N4 and 184B5 cells were evaluated at two different cell densities (seeded at 1×10^3 and 2×10^3 per well). After 24 hours of cell attachment, cells in triplicate wells were treated with pentamer at a concentration of 100 μg/mL. The cells on the same plate were treated with corresponding controls: (i) media containing DMSO, and (ii) media with no additions.\n(§3) Cells were treated for 1, 2, 3, 6, 8 and 10 days, but in some cases, the samples were collected at days 2, 3, 4, 7 and 10 post-treatment. Each treatment was conducted in triplicate. Samples were collected at each time point as follows: media was removed and 50 μL of crystal violet solution (0.1% of crystal violet in 0.1 M citric acid solution) was added to each well at room temperature and plates were incubated for 15 minutes, followed by washing with deionized water. Plates were dried at room temperature overnight. The following day, plates were destained by adding 100 μL of 0.1 M sodium citrate solution into each well. Plates were incubated for one hour. The optical density (OD) of samples was read at 550 nm on an Ultramark Microplate Imagining System (BioRad, Philadelphia, Pa.). The experiment was repeated twice resulting in an average of nine measurements per sample. Statistical significance was determined using the t test analysis."}, "MDA MB-231 cells": {"tested_on": "MDA MB-231 cells", "experiment": "Crystal violet cellular proliferation assay", "settings": "100 μg/mL, ten days after treatment", "experimental": "as §1, §2, §3"}, "MDA MB-436 cells": {"tested_on": "MDA MB-436 cells", "experiment": "Crystal violet cellular proliferation assay", "settings": "100 μg/mL, ten days after treatment", "experimental": "as §1, §2, §3"}, "MDA MB-468 cells": {"tested_on": "MDA MB-468 cells", "experiment": "Crystal violet cellular proliferation assay", "settings": "100 μg/mL, ten days after treatment", "experimental": "as §1, §2, §3"}, "SKBR-3 cells": {"tested_on": "SKBR-3 cells", "experiment": "Crystal violet cellular proliferation assay", "settings": "100 μg/mL, ten days after treatment", "experimental": "as §1, §2, §3"}, "MCF-10A cells": {"tested_on": "MCF-10A cells", "experiment": "Crystal violet cellular proliferation assay", "settings": "100 μg/mL", "experimental": "(§4) The MCF-10A cell line (spontaneously immortalized, non-tumorigenic human mammary epithelial cell line with non-mutated p53) was maintained in F-12/DMEM medium supplemented with 5% horse serum (Gibco), 20 ng/mL EGF (Upstate Biotechnology Incorporated, Lake Placid, N.Y.), 10 μg/mL insulin (Biofluids, Rockville, Md.), and 500 ng/mL hydrocortisone. The same media were used for MCF-10A-ErbB2/Ras cells (Ciardiello, F. et al., Mol Carcinog., 6: 43-52. 1992) and MCF-10A-c-Myc cells (Sheen, J-H. et al., Mol. Cell. Biol., 22: 1819-1833, 2002).\nas §2, §3"}, "MCF-10A-ErbB2/Ras cells": {"tested_on": "MCF-10A-ErbB2/Ras cells", "experiment": "Crystal violet cellular proliferation assay", "settings": "100 μg/mL", "experimental": "as §4, §2, §3"}, "MCF-10A-c-Myc cells": {"tested_on": "MCF-10A-c-Myc cells", "experiment": "Crystal violet cellular proliferation assay", "settings": "100 μg/mL", "experimental": "as §4, §2, §3"}, "184B5 cells": {"tested_on": "184B5 cells", "experiment": "Crystal violet cellular proliferation assay", "settings": "100 μg/mL", "experimental": "The 184B5 line is an immortalized, non-tumorogenic cell line derived from primary cultures of HMECs immortalized with benzo(a)pyrene (provided by Dr. M. R. Stampfer) and was maintained in Clonetics mammary epithelial cells medium (MEGM).\nas §2\nas §3, with “Plates were dried at room temperature overnight. The following day, plates were destained by adding 100 μL of 0.1 M sodium citrate solution into each well. Plates were incubated for one hour.” left out, “The experiment was repeated twice resulting in an average of nine measurements per sample.” left out"}, "PKC-δ": {"tested_on": "PKC-δ", "experiment": "Confirmation of LPS results by immunoblotting, MDA MB-231 cells", "settings": "PVDF membranes", "experimental": "(§5) The proteins affected by pentamer, as detected by LPS, were analyzed further by immunoblotting. Antibodies against the following proteins were used: Cdc2 (Tyr15), FKHR (Ser256), p53 (Ser37, Ser46 and Ser392), PKC-δ (Ser643), PKC-θ (Ser643/676), pRb (Ser795 and Ser807/811), SAPK/JNK (Thr183/Tyr185) and Stat 5 (Tyr694) (all antibodies were obtained from Cell Signaling).\n(§6) Protein pellets from pentamer-treated MDA MB-231, MDA MB-468 and MCF-7 cells and corresponding DMSO-treated controls were lysed in PBS with 1% SDS and sonicated for 15 seconds at a power of five watts. Samples were then centrifuged at 10,000 rpm and supernatants transferred into clean tubes. Protein concentration was determined as descried above. Ten jig of each protein sample was separated by PAGE on 4-20% gradient gels (BioRad, Philadelphia, Pa.). Gels were either transferred to PVDF membranes (BioRad) or P-FILM membrane (stacks of 10 membranes) according to the manufacturer's instructions (20/20 Gene Systems). PVDF membranes were blocked for 1 hour in 0.5% casein solution (Vector Laboratories, Burlingame, Calif.), prior to incubation with primary antibodies. […] The membranes were incubated overnight at 4° C. in 1:500 dilutions of primary antibodies, washed three times in TBST for five minutes, incubated in HRP-conjugated secondary antibodies, washed again and incubated in ECL Plus Reagent (Amersham). Signals were visualized on BIOMAX MR film (Kodak, Rochester, N.Y.). Following incubation with primary antibodies, membranes were incubated in anti-GAPDH antibody (1:500 dilution; Chemicon, Temecula, Calif.). The presence of this protein was visualized with secondary antibody conjugated to alkaline phosphatase DuoLux substrate (Vector Laboratories)."}, "PKC-θ": {"tested_on": "PKC-θ", "experiment": "Confirmation of LPS results by immunoblotting, MDA MB-231 cells", "settings": "PVDF membranes", "experimental": "as §5, §6"}, "SAPK/JNK": {"tested_on": "SAPK/JNK", "experiment": "Confirmation of LPS results by immunoblotting, MDA MB-231 cells", "settings": "PVDF membranes", "experimental": "as §5, §6"}, "Stat5": {"tested_on": "Stat5", "experiment": "Confirmation of LPS results by immunoblotting, MDA MB-231 cells", "settings": "PVDF membranes", "experimental": "as §5, §6"}},
  "data": [
    {"smiles": "Oc1cc(O)c2c(c1)O[C@H](c1ccc(O)c(O)c1)[C@H](O)[C@H]2c1c(O)cc(O)c2c1O[C@H](c1ccc(O)c(O)c1)[C@H](O)[C@H]2c1c(O)cc(O)c2c1O[C@H](c1ccc(O)c(O)c1)[C@H](O)[C@H]2c1c(O)cc(O)c2c1O[C@H](c1ccc(O)c(O)c1)[C@H](O)[C@H]2c1c(O)cc(O)c2c1O[C@H](c1ccc(O)c(O)c1)[C@H](O)C2", "note": "[pentamer, pentameric procyanidin]", "values": [
      {"measurement": "growth inhibition", "setting": "MCF-7 cells", "value": 5.6, "unit": "fold"},
      {"measurement": "growth inhibited, in comparison to DMSO-treated controls", "setting": "MDA MB-231 cells", "value": 5, "unit": "fold"},
      {"measurement": "growth inhibited, in comparison to DMSO-treated controls", "setting": "MDA MB-436 cells", "value": 4.1, "unit": "fold"},
      {"measurement": "growth inhibited, in comparison to DMSO-treated controls", "setting": "MDA MB-468 cells", "value": 4, "unit": "fold"},
      {"measurement": "growth inhibited, in comparison to DMSO-treated controls", "setting": "SKBR-3 cells", "value": 5.5, "unit": "fold"},
      {"measurement": "pentamer-induced growth inhibition", "setting": "MCF-10A cells", "value": "equally resistant"},
      {"measurement": "pentamer-induced growth inhibition", "setting": "MCF-10A-ErbB2/Ras cells", "value": "equally resistant"},
      {"measurement": "pentamer-induced growth inhibition", "setting": "MCF-10A-c-Myc cells", "value": "equally resistant"},
      {"measurement": "day post-treatment at which significant sensitivity to pentamer was exhibited", "setting": "184B5 cells", "value": 10, "unit": "days"},
      {"measurement": "growth inhibited, in comparison to DMSO-treated controls", "setting": "184B5 cells", "value": 2.8, "unit": "fold"},
      {"measurement": "confirmation of LPS result on PKC-δ by immunoblotting", "setting": "PKC-δ", "value": "not confirmed"},
      {"measurement": "confirmation of LPS result on PKC-θ by immunoblotting", "setting": "PKC-θ", "value": "not confirmed"},
      {"measurement": "confirmation of LPS result on SAPK/JNK by immunoblotting", "setting": "SAPK/JNK", "value": "not confirmed"},
      {"measurement": "confirmation of LPS result on Stat5 by immunoblotting", "setting": "Stat5", "value": "not confirmed"}
    ]}
  ]
}
